According to patent US10981932B2, “Macrocyclic indole derivatives” (Bayer Aktiengesellschaft, priority 2016, dated 2021):
Where a name gives a salt, the structure may show the parent alone.

Experiments:
[1] = tested on: A2780; experiment: Anti-proliferative effect (CellTiter-Glo, 72 h), A2780; assay type: cell-based; details: A2780 cells, median, read-out: IC50 antiproliferation assay A2780 [M] (median)
How it was run: (§1)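 Luminescence from CellTiter-Glo, read 10 min after reagent addition, reports viable cell content after 72 h of compound treatment at 37 °C. A reference plate read at day 0 gives the starting baseline.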

[2] = tested on: SUDHL5; experiment: Induction of cytotoxicity (CellTiter-Glo, 5 h), SUDHL5; details: read-out: Cytotox SUDHL5 [M] (median); SUDHL5 cells, cytotoxicity induction, CellTiter-Glo, 5 h incubation, median
[3] = tested on: SUDHL10; experiment: Induction of cytotoxicity (CellTiter-Glo, 5 h), SUDHL10; details: read-out: Cytotox SUDHL10 [M] (median); SUDHL10 cells, cytotoxicity induction, CellTiter-Glo, 5 h incubation, median
[4] = target: MCL-1 (Homo sapiens, UniProt Q07820); experiment: Protein-protein interaction assay MCL-1/Noxa BH3 peptide (MCL-1 assay), TR-FRET; assay type: binding; details: MBP-MCL-1 / Noxa BH3-derived peptide, median
Chain of MCL-1 (Q07820 whole entry): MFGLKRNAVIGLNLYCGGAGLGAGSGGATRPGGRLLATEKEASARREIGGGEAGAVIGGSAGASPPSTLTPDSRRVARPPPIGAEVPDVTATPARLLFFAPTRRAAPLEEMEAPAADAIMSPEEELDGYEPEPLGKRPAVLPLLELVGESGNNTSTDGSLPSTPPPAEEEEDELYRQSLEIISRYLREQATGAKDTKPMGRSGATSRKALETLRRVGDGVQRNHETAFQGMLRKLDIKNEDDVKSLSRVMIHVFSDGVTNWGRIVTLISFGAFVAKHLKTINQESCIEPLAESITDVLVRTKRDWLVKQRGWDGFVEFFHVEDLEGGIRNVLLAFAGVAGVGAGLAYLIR
How it was run: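 Inhibition values were normalized between DMSO controls with all reagents and controls lacking MCL-1. The binding competition used 1 nM MBP-MCL-1 in pH 7 Tris buffer containing 50 mM KF and 100 mM NaCl, with a 10 min compound preincubation at 22 °C.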

[5] = tested on: SUDHL10; experiment: Induction of caspase-3/7 activity (Caspase-Glo 3/7), SUDHL10; assay type: cell-based; details: caspase-3/7 induction, SUDHL10 cells, 3 h treatment; median
How it was run: (§2)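 Apoptosis induction measured as caspase-3/7 activity (Caspase-Glo 3/7) in DLBCL lines after 3 h treatment at 37 °C; EC50 derived relative to the reference compound's maximal induction, with C0 fixed at 1.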

[6] = tested on: SUDHL5; experiment: Anti-proliferative effect (CellTiter-Glo, 72 h), SUDHL5; assay type: cell-based; details: SUDHL5 cells, antiproliferation, 72 h incubation, median, read-out: Antiproli SUDHL5 [M] (median)
How it was run: as §1

[7] = tested on: SUDHL10; experiment: Anti-proliferative effect (CellTiter-Glo, 72 h), SUDHL10; assay type: cell-based; details: SUDHL10 cells, antiproliferation, 72 h incubation, median, read-out: Antiproli SUDHL10 [M] (median)
How it was run: as §1

[8] = tested on: SUDHL5; experiment: Induction of caspase-3/7 activity (Caspase-Glo 3/7), SUDHL5; assay type: cell-based; details: caspase-3/7 induction, SUDHL5 cells, 3 h treatment; median
How it was run: as §2

| Compound | IC50 [1] | IC50 [2] | IC50 [3] | IC50 [4] | EC50 [5] | IC50 [6] | IC50 ([7]; Homo sapiens, SU-DHL10, 72 h) | EC50 [8] | IC50 [7] |
| --- | --- | --- | --- | --- | --- | --- | --- | --- | --- |
| Cc1nn(CC(F)(F)F)c2c1-c1cccc3c(CCCOc4cccc5c4CCCC5)c(C(=O)O)n(c13)CCCCOC2 (single isomer, unassigned; enantiomer 2) [Example 163, 3-methyl-7-[3-(5,6,7,8-tetrahydronaphthalen-1-yloxy)propyl]-1-(2,2,2-trifluoroethyl)-1,10,11,12,13,15-hexahydropyrazolo[4′,3′:9,10][1,6]oxazacycloundecino[8,7,6-hi]indole-8-carboxylic acid-N-ethylethanamine Salt (Enantiomer 2)] | 2.75e-05 M | 2.93e-05 M | > 3.3e-05 M | 0.637 µM | > 33 µM | 1.17e-05 M | 6.35e-06 M | > 33 µM |  |
| Cn1nc(CN2CC(F)(F)C2)c2c1COCCCCn1c(C(=O)O)c(CCCOc3cccc4ccccc34)c3cccc-2c31 (single isomer, unassigned; enantiomer 2) [Example 182, 3-[(3,3-difluoroazetidin-1-yl)methyl]-1-methyl-7-[3-(naphthalen-1-yloxy)propyl]-1,10,11,12,13,15-hexahydropyrazolo[4′,3′:9,10][1,6]oxazacycloundecino[8,7,6-hi]indole-8-carboxylic acid-N-ethylethanamine Salt (Enantiomer 2)] | 1.75e-05 M | > 3.3e-05 M | > 3.3e-05 M | 0.122 µM | > 33 µM | 1.91e-05 M |  | > 33 µM | 6.02e-06 M |
| COCc1nn(C)c2c1-c1cccc3c(CCCOc4cccc5ccccc45)c(C(=O)O)n(c13)CCCCN(C)C2 (single isomer, unassigned; enantiomer 2) [Example 185, 3-(methoxymethyl)-1,14-dimethyl-7-[3-(naphthalen-1-yloxy)propyl]-10,11,12,13,14,15-hexahydro-1H-pyrazolo[3′,4′:8,9][1,6]diazacycloundecino[10,11,1-hi]indole-8-carboxylic acid —N-ethylethanamine Salt (Enantiomer 2)] | 1.88e-05 M | 2.75e-05 M | > 3.3e-05 M | 0.211 µM | > 33 µM | 1.98e-05 M |  | > 33 µM | 8.53e-06 M |
| CCCc1nn(C)c2c1-c1c(C)ccc3c(CCCOc4cccc5ccccc45)c(C(=O)O)n(c13)CCCCOC2 (single isomer, unassigned; enantiomer 2) [Example 189, 1,4-dimethyl-7-[3-(naphthalen-1-yloxy)propyl]-3-propyl-1,10,11,12,13,15-hexahydropyrazolo[4′3′:9,10][1,6]oxazacycloundecino[8,7,6-hi]indole-8-caboxylic acid-N-ethylethanamine Salt (Enantiomer 2)] | 1.78e-05 M | 2.86e-05 M | > 3.3e-05 M | 0.142 µM | > 33 µM | 1.09e-05 M |  | > 33 µM | 2.01e-05 M |
| Cc1c2c(nn1C)CCCCCCn1c(C(=O)O)c(CCCOc3cccc4ccccc34)c3cccc-2c31 (single isomer, unassigned; enantiomer 2) [Example 192, 2,3-dimethyl-7-[3-(1-naphthyloxy)propyl]-10,11,12,13,14,15-hexahydro-2H-pyrazolo[4′,3′:4,5]azacycloundecino[3,2,1-hi]indole-8-carboxylic acid-N-ethylethanamine Salt (Enantiomer 2)] | 1.8e-05 M | > 3.3e-05 M | > 3.3e-05 M | 0.123 µM | > 33 µM | 2.03e-05 M |  | > 33 µM | 9.22e-06 M |
